# Laboratory results taken from US5445944A, “Methods for determining peroxidately active substances” (Syntex (U.S.A.) Inc., priority 1994, dated 1995).
# What was measured:
# [1] = Suitability of benzidines as hydrogen donor in the peroxidase cleavage reaction
# [2] = Trapping of / reaction with oxidized dicarboxidine in solution
# HRP [3] = biological target: T1, HRP (Armoracia rusticana, UniProt P00433); assay: Release of fluorophore, pH jump method (HRP/H2O2 cleavage at pH 5.0, fluorescence read at pH 8.0); assay type: biochemical, horseradish; settings: pH jump: reaction in citrate buffer pH 5.0 with H2O2 and 0.1 mL HRP (10 ng/mL); aliquot read in phosphate buffer pH 8.0; experiment repeated (two lines)
# T1 sequence (P00433 31-338 limits assumed): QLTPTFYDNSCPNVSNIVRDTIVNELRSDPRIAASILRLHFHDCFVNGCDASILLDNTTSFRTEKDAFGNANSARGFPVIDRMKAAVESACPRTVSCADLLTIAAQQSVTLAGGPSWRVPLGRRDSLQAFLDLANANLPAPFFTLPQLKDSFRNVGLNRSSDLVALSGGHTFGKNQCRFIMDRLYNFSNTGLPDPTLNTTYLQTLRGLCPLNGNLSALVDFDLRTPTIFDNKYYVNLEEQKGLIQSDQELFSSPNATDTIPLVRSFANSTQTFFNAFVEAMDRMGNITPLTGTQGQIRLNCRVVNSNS
# Experimental: 0.01 mL of dicarboxidine 11 (or XV), 0.1 mL of 49 and 0.04 mL of H2 O2 were added to 0.75 mL (0.76 mL) citrate buffer (pH 5.0, 0.1M); 0.1 mL of HRP (10 ng/mL) was added to start the reaction. 0.05 mL of this solution was taken every three minutes and added to 0.95 mL of phosphate buffer (pH 8.0, 1.0M) and spectra recorded. This experiment was repeated.
# Results: Fluorescence after 3 minutes--background fluorescence.
# HRP [4] = biological target: T1, HRP; assay: Release of fluorophore at pH 7.0 (HRP/H2O2); assay type: biochemical, horseradish; settings: phosphate buffer 0.1M pH 7.0, H2O2, 0.1 mL HRP (100 ng/mL); experiment repeated (two lines)
# Experimental: 0.01 mL of dicarboxidine 11 (or XV), 0.1 mL of 49 and 0.04 mL of H2 O2 were added to 0.75 mL (0.76 mL) of phosphate buffer (0.1M, pH 7.0). 0.1 mL of HRP (100 ng/mL) was added to start the reaction and the spectra recorded. This experiment was repeated.
Structure (SMILES),Function as benzidine hydrogen donor [1],Effect on / reaction with oxidized dicarboxidine [2],also measured
"Cc1cc(-c2ccc(N)c(C)c2)ccc1N [3,3'-dimethylbenzidine]",function in the present invention,–,–
COc1ccccc1OC [ortho-methoxy anisole],–,has no effect on oxidized dicarboxidine,–
"Cc1cc(-c2cc(C)c(N)c(C)c2)cc(C)c1N [3,3',5,5'-tetramethylbenzidine]",do not react at a rate acceptable for assays,–,–
COc1ccc(O)cc1C(=O)O [2-methoxy-5-hydroxybenzoic acid],–,react with oxidized dicarboxidine,–
"O=C(O)c1cc(O)ccc1O [Gentisic acid, gentisic acid]",–,react with oxidized dicarboxidine,–
COc1ccc(OC)cc1 [Para-methoxy anisole],–,has no effect on oxidized dicarboxidine,–
"CN(C)c1ccc(-c2ccc(N(C)C)cc2)cc1 [N,N,N',N'-tetramethylbenzidine]",do not react at a rate acceptable for assays,–,–
Nc1ccc(-c2ccc(N)cc2)cc1 [benzidine],function in the present invention,–,–
COc1ccc(O)c(C(=O)O)c1 [2-hydroxy-5-methoxy benzoic acid],–,has no effect on oxidized dicarboxidine,–
O=C(NCCS(=O)(=O)O)c1cc2ccc(Oc3ccc(O)cc3)cc2oc1=O [Compound 49],–,–,Fluorescence after 3 minutes--background fluorescence (HRP [3]): 0.50 F.U.; Fluorescence (HRP [4]): 40 F.U.
